Patent US12594267B2, “Capsid inhibitors for the treatment of HIV” (Gilead Sciences, Inc., priority 2018, dated 2026)
Read-outs that look alike come from different tables or passages of the source.

Test: PK after subcutaneous administration of solutions in rats
Assay type: in vivo, Wistar Han rat
Details: for Plasma concentration: 0 h
Procedure: Formulations containing the compound of Formula (Ia) were prepared as aqueous solutions or oral formulations and administered subcutaneously to rats, dogs, cynomolgus monkey, and/or rhesus monkey.
A solution of the compound of Formula (Ia) in 10% ethanol, 13% water, and 77% PEG 200 (400 mg/mL) was prepared. The solution was administered subcutaneously to dogs at a dose of 12 mg/kg and rats at a dose of 50 mg/kg and the pharmacokinetic (PK) profile was determined. […] In both species, plasma concentrations of the compound of Formula (Ia) were maintained above the target trough concentration of 20 nM (corresponding to an IQ of 5) for at least 84 days (12 weeks).
A solution of the free acid of the compound of Formula (Ia) in 15% water and 85% PEG 300 (300 mg/mL) was prepared. The solution was administered subcutaneously to male Wistar Han rats at a dose level of 50 mg/kg and dose volume of 0.167 mL/kg and the pharmacokinetic (PK) profile was determined.
A 300 mg/ml solution of a compound of Formula (Ia) having 9.8 w/w % water, 65.0 w/w % PEG 300, and 25.2 w/w % of the compound of Formula (Ia) was prepared. The solution was administered subcutaneously to rats at a dose of 50 mg/kg and to dogs at a dose of 12 mg/kg and the pharmacokinetic (PK) profile was determined. […] In the rat, plasma concentrations of the compound of Formula (Ia) were maintained above the target trough concentration of 20 nM for at least 168 days (24 weeks). In the dog, plasma concentrations of the compound of Formula (Ia) were maintained above the target trough concentration of 20 nM for at least 84 days (12 weeks).
(§1) A 150 mg/ml solution of a compound of Formula (Ia) having 27.92 w/w % water, 58.04 w/w % PEG 300, 13.47 w/w % of a compound of Formula (Ia), and 1.1 w/w % NaOH was prepared. The solution was administered subcutaneously to rats at a dose of 50 mg/kg and to dogs at a dose of 12 mg/kg and the pharmacokinetic (PK) profile was determined. […] In the rat, plasma concentrations of the compound of Formula (Ia) were maintained above the target trough concentration of 20 nM for at least 126 days (18 weeks). In the dog, plasma concentrations of the compound of Formula (Ia) were maintained above the target trough concentration of 20 nM for at least 56 days (8 weeks).
as §1, with “300” for “150”, “23.2” for “27.92”, “50.0” for “58.04”, “25.7” for “13.47”
A 50 mg/ml solution of a compound of Formula (Ia) having 30.07 w/w % water, 64.40 w/w % PEG 300, 4.68 w/w % of a sodium salt of the compound of Formula (Ia), and 0.85 w/w % poloxamer 188 was prepared. The solution was administered subcutaneously to rats at a dose of 50 mg/kg and to dogs at a dose of 6 mg/kg and the pharmacokinetic (PK) profile was determined. […] In the rat, plasma concentrations of the compound of Formula (Ia) were maintained above the target trough concentration of 20 nM for at least 28 days (4 weeks). In the dog, plasma concentrations of the compound of Formula (Ia) were maintained above the target trough concentration of 20 nM for at least 14 days (2 weeks).
A 75 mg/ml solution of a compound of Formula (Ia) having 29.21 w/w % water, 62.55 w/w % PEG 300, 6.97 w/w % of a sodium salt of the compound of Formula (Ia), and 1.68 w/w % poloxamer 188 was prepared. The solution was administered subcutaneously to rats at a dose of 50 mg/kg and to dogs at a dose of 6 mg/kg and the pharmacokinetic (PK) profile was determined. […]

[1] = male, Wistar Han, rat, plasma, sc, 50 mg/kg, rat #3, SC 50 mg/kg, 300 mg/mL in 15% water/85% PEG 300
[2] = male, Wistar Han, rat, plasma, sc, 50 mg/kg, rat mean, n=3, SC 50 mg/kg, 300 mg/mL in 15% water/85% PEG 300
[3] = rat, SC 50 mg/kg, 75 mg/mL solution (w/w %: 29.21 water, 62.55 PEG 300, 6.97 sodium salt of Formula (Ia), 1.68 poloxamer 188), mean ± SD, n=3
[4] = rat, SC 50 mg/kg, 125 mg/mL solution (w/w %: 27.51 water, 58.92 PEG 300, 11.48 sodium salt of Formula (Ia), 2.09 poloxamer 188), mean ± SD, n=3
[5] = rat, SC 50 mg/kg, 150 mg/mL solution (w/w %: 26.6 water, 56.97 PEG 300, 13.39 Formula (Ia), 0.57 NaOH, 2.49 poloxamer 188), mean ± SD, n=3
[6] = rat, SC 50 mg/kg, 300 mg/mL solution (w/w %: 9.8 water, 65.0 PEG 300, 25.2 Formula (Ia)), mean ± SD, n=3
[7] = rat, SC 50 mg/kg, 300 mg/mL solution (w/w %: 21.97 water, 47.05 PEG 300, 25.21 Formula (Ia), 1.08 NaOH, 4.69 poloxamer 188), mean ± SD, n=3

Structure (SMILES): CC(C)(C#Cc1ccc(-c2ccc(Cl)c3c(NS(C)(=O)=O)nn(CC(F)(F)F)c23)c([C@H](Cc2cc(F)cc(F)c2)NC(=O)Cn2nc(C(F)(F)F)c3c2C(F)(F)[C@@H]2C[C@H]32)n1)S(C)(=O)=O [Formula (Ia), N—((S)-1-(3-(4-chloro-3-(methylsulfonamido)-1-(2,2,2-trifluoroethyl)-1H-indazol-7-yl)-6-(3-methyl-3-(methylsulfonyl)but-1-yn-1-yl)pyridin-2-yl)-2-(3,5-difluorophenyl)ethyl)-2-((3bS,4aR)-5,5-difluoro-3-(trifluoromethyl)-3b,4,4a,5-tetrahydro-1H-cyclopropa[3,4]cyclopenta[1,2-c]pyrazol-1-yl)acetamide]
- concentration at 96 h [1]: 85.2 nM
- concentration at 168 h [1]: 137 nM
- concentration at 336 h [1]: 284 nM
- concentration at 504 h [1]: 281 nM
- concentration at 672 h [1]: 304 nM
- concentration at 840 h [1]: 302 nM
- concentration at 1008 h [1]: 289 nM
- concentration at 1344 h [1]: 278 nM
- concentration at 1680 h [1]: 200 nM
- concentration at 1 h (male, Wistar Han, rat, plasma, sc, 50 mg/kg, rat mean, n=3, 1 h, SC 50 mg/kg, 300 mg/mL in 15% water/85% PEG 300): 8.6 nM
- concentration at 3 h (male, Wistar Han, rat, plasma, sc, 50 mg/kg, rat mean, n=3, 3 h, SC 50 mg/kg, 300 mg/mL in 15% water/85% PEG 300): 21.5 nM
- concentration at 8 h (male, Wistar Han, rat, plasma, sc, 50 mg/kg, rat mean, n=3, 8 h, SC 50 mg/kg, 300 mg/mL in 15% water/85% PEG 300): 32.2 nM
- concentration at 24 h (male, Wistar Han, rat, plasma, sc, 50 mg/kg, rat mean, n=3, 24 h, SC 50 mg/kg, 300 mg/mL in 15% water/85% PEG 300): 48.2 nM
- concentration at 48 h (male, Wistar Han, rat, plasma, sc, 50 mg/kg, rat mean, n=3, 48 h, SC 50 mg/kg, 300 mg/mL in 15% water/85% PEG 300): 70.6 nM
- concentration at 72 h (male, Wistar Han, rat, plasma, sc, 50 mg/kg, rat mean, n=3, 72 h, SC 50 mg/kg, 300 mg/mL in 15% water/85% PEG 300): 67.5 nM
- concentration at 96 h [2]: 75.8 nM
- concentration at 168 h [2]: 137 nM
- concentration at 336 h [2]: 272 nM
- concentration at 504 h [2]: 292 nM
- concentration at 672 h [2]: 312 nM
- concentration at 840 h [2]: 313 nM
- concentration at 1008 h [2]: 282 nM
- concentration at 1344 h [2]: 253 nM
- concentration at 1680 h [2]: 189 nM
- AUC(0-t) (male, Wistar Han, rat, plasma, sc, 50 mg/kg, rat, single SC 50 mg/kg, 300 mg/mL free acid in 85:15 w/w PEG 300:water, mean ± SD, n=3, read-out: AUC0-168h): 13.3 ± 0.3 µM·h
- AUC(0-t) (male, Wistar Han, rat, plasma, sc, 50 mg/kg, rat, single SC 50 mg/kg, 300 mg/mL free acid in 85:15 w/w PEG 300:water, mean ± SD, n=3, read-out: AUC0-336h): 47.6 ± 1.2 µM·h
- AUC(0-t) (male, Wistar Han, rat, plasma, sc, 50 mg/kg, rat, single SC 50 mg/kg, 300 mg/mL free acid in 85:15 w/w PEG 300:water, mean ± SD, n=3, read-out: AUC0-672h): 146 ± 6 µM·h
- Plasma concentration (rat #1, SC 50 mg/kg, 300 mg/mL in 15% water/85% PEG 300): BLQ
- Plasma concentration (rat #2, SC 50 mg/kg, 300 mg/mL in 15% water/85% PEG 300): BLQ
- Plasma concentration (rat #3, SC 50 mg/kg, 300 mg/mL in 15% water/85% PEG 300): BLQ
- Time plasma concentrations maintained above the target trough concentration of 20 nM (rat, SC 50 mg/kg, 50 mg/mL solution (w/w %: 30.07 water, 64.40 PEG 300, 4.68 sodium salt of Formula (Ia), 0.85 poloxamer 188)): at least 28 days
- AUC0-28d (rat, SC 50 mg/kg, 50 mg/mL solution (w/w %: 30.07 water, 64.40 PEG 300, 4.68 sodium salt of Formula (Ia), 0.85 poloxamer 188), mean ± SD, n=3): 643 ± 75 µM·h
- Time plasma concentrations maintained above the target trough concentration of 20 nM (rat, SC 50 mg/kg, 75 mg/mL solution (w/w %: 29.21 water, 62.55 PEG 300, 6.97 sodium salt of Formula (Ia), 1.68 poloxamer 188)): at least 42 days
- AUC0-7d [3]: 241 ± 22 µM·h
- AUC0-28d [3]: 690 ± 32 µM·h
- Time plasma concentrations maintained above the target trough concentration of 20 nM (rat, SC 50 mg/kg, 100 mg/mL solution (w/w %: 28.36 water, 60.73 PEG 300, 9.23 sodium salt of Formula (Ia), 1.68 poloxamer 188)): at least 28 days
- AUC0-28d (rat, SC 50 mg/kg, 100 mg/mL solution (w/w %: 28.36 water, 60.73 PEG 300, 9.23 sodium salt of Formula (Ia), 1.68 poloxamer 188), mean ± SD, n=3): 716 ± 62 µM·h
- Time plasma concentrations maintained above the target trough concentration of 20 nM (rat, SC 50 mg/kg, 125 mg/mL solution (w/w %: 27.51 water, 58.92 PEG 300, 11.48 sodium salt of Formula (Ia), 2.09 poloxamer 188)): at least 28 days
- AUC0-7d [4]: 153 ± 38 µM·h
- AUC0-28d [4]: 673 ± 67 µM·h
- Time plasma concentrations maintained above the target trough concentration of 20 nM (rat, SC 50 mg/kg, 150 mg/mL solution (w/w %: 26.6 water, 56.97 PEG 300, 13.39 Formula (Ia), 0.57 NaOH, 2.49 poloxamer 188)): at least 98 days
- AUC0-98d [5]: 949 ± 114 µM·h
- AUC0-112d [5]: 963 ± 102 µM·h
- Time plasma concentrations maintained above the target trough concentration of 20 nM (rat, SC 50 mg/kg, 150 mg/mL solution (w/w %: 27.92 water, 58.04 PEG 300, 13.47 Formula (Ia), 1.1 NaOH)): at least 126 days
- AUC0-98d (rat, SC 50 mg/kg, 150 mg/mL solution (w/w %: 27.92 water, 58.04 PEG 300, 13.47 Formula (Ia), 1.1 NaOH), mean ± SD, n=3): 801 ± 119 µM·h
- Time plasma concentrations maintained above the target trough concentration of 20 nM (rat, SC 50 mg/kg, 300 mg/mL solution (w/w %: 9.8 water, 65.0 PEG 300, 25.2 Formula (Ia))): at least 168 days
- AUC0-98d [6]: 531 ± 30 µM·h
- AUC0-168d [6]: 730 ± 55 µM·h
- Time plasma concentrations maintained above the target trough concentration of 20 nM (rat, SC 50 mg/kg, 300 mg/mL solution (w/w %: 21.97 water, 47.05 PEG 300, 25.21 Formula (Ia), 1.08 NaOH, 4.69 poloxamer 188)): at least 98 days
- AUC0-98d [7]: 928 ± 175 µM·h
- AUC0-140d [7]: 948 ± 169 µM·h
- Time plasma concentrations maintained above the target trough concentration of 20 nM (rat, SC 50 mg/kg, 300 mg/mL solution (w/w %: 23.2 water, 50.0 PEG 300, 25.7 Formula (Ia), 1.1 NaOH)): at least 126 days
- AUC0-126d (rat, SC 50 mg/kg, 300 mg/mL solution (w/w %: 23.2 water, 50.0 PEG 300, 25.7 Formula (Ia), 1.1 NaOH), mean ± SD, n=3): 698 ± 13 µM·h
- Time plasma concentrations maintained above the target trough concentration of 20 nM (rat, SC 50 mg/kg, 400 mg/mL solution in 10% ethanol, 13% water, 77% PEG 200): at least 84 days
- AUC0-84d (rat, SC 50 mg/kg, 400 mg/mL solution in 10% ethanol, 13% water, 77% PEG 200, mean ± SD, n=3): 404 ± 139 µM·h
- AUC0-1680h (rat, single SC 50 mg/kg, 300 mg/mL free acid in 85:15 w/w PEG 300:water, mean ± SD, n=3): 412 ± 21 µM·h
